Experimental data as given in US10722496B2, “2-iminobiotin for use in the treatment of brain cell injury” (Neurophyxia B.V., priority 2015, dated 2020).

Assays:
Assay type in all cases: cell-based, human
[1] = test system: IMR-32 cells; test: LDH cytotoxicity assay, hypoxia-induced cell damage; conditions: 10 ng/ml 2-IB, 17 hours after hypoxia
[2] = test system: IMR-32 cells; test: as above
Method: (§1) In vitro hypoxia was induced in the cell cultures by using our recently described system with minor modifications (Huang et al., 2013b; Weber et al., 2015; Zitta et al., 2010). Enzyme stock solutions (100×) of catalase and glucose oxidase (both from Sigma-Aldrich) were prepared in cell culture medium (DMEM/F12, 1% FCS; final concentration: 120 U/ml and 2 U/ml respectively; Sigma-Aldrich) leading to a decrease of partial pressure of oxygen (pO2) below 10 mmHg within 5 minutes. Hypoxic conditions were confirmed by using a tissue oxygen pressure monitor (LICOX® CMP Oxygen Catheter; Integra, Plainsboro, USA). After 7 hours of hypoxia, the cells were washed twice with PBS (PAA) and fresh normoxic medium supplemented with solvent (citrate buffer 1%) or 2-IB (10, 30, 50, 100 and 300 ng/mL) was added to the cells. Investigations of cell damage, metabolic activity, ROS, hydrogen peroxide, nitrite/nitrate production, erkl/2, akt and stat5 phosphorylation as well as cell stress protein expression were performed with cell culture media or cell protein (FIG. 1).
The release of LDH from cultured cells into the medium was quantified by using a colorimetric cytotoxicity detection kit (Roche, Mannheim, Germany). Samples were prepared based on the manufacturer's protocol. Briefly, culture media were collected 24 hours after hypoxia and stored at −20° C. For evaluation of total LDH, cells were lysed with 2% TRITON® X-100 (Carl Roth, Karlsruhe, Germany) for 15 minutes at 37° C. LDH activity of the samples was measured in 96-well plates at 490 nm using an ELISA reader (Tecan, Crailsheim, Austria) in combination with the Magellan software v1.1.

[3] = test system: stat5; test: Western blotting, stat5 phosphorylation; conditions: 30 ng/ml 2-IB
Method: as §1, with “Investigations of cell damage, metabolic activity, ROS, hydrogen peroxide, nitrite/nitrate production, erkl/2, akt and stat5 phosphorylation as well as cell stress protein expression were performed with cell culture media or cell protein (FIG. 1).” left out
Protein extraction was performed using RIPA buffer containing 150 mM sodium chloride, 1% NP-40, 1% sodium deoxycholate, 0.1% sodium dodecyl sulfate (SDS) and 50 mM Tris-HCl buffer (pH 7.6; all from Sigma-Aldrich) or alternatively M-PER buffer (Mammalian Protein Extraction Reagent; Pierce, Ill., USA). Protein concentrations were determined with Roti®-Quant assays (Carl Roth) and samples were stored at −20° C. until use. […] Images were taken and densitometrically analyzed with the software ImageJ (v1.41o, NIH).

N=C1N[C@H]2[C@H](CS[C@H]2CCCCC(=O)O)N1 [2-IB, 2-iminobiotin]
LDH/total LDH ([1]; hypoxia): 0.15±0.03 | LDH/total LDH ([1]; normoxia): 0.09±0.02 | LDH/total LDH ([2]; 30 ng/ml 2-IB, hypoxia): 0.13±0.02 | LDH/total LDH ([2]; 30 ng/ml 2-IB, normoxia): 0.11±0.03 | LDH/total LDH ([2]; 50 ng/ml 2-IB, hypoxia): 0.14±0.04 | LDH/total LDH ([2]; 50 ng/ml 2-IB, normoxia): 0.14±0.04 | LDH/total LDH ([2]; 100 ng/ml 2-IB, hypoxia): 0.15±0.03 | LDH/total LDH ([2]; 100 ng/ml 2-IB, normoxia): 0.10±0.02 | LDH/total LDH ([2]; 300 ng/ml 2-IB, hypoxia): 0.20±0.06 | LDH/total LDH ([2]; 300 ng/ml 2-IB, normoxia): 0.10±0.02 | reduction of hypoxia-induced cell damage, most effective concentrations ([2]; 10-300 ng/ml tested, P<0.05 vs. control): 30 and 50 ng/ml 2-IB were the most effective concentrations | phosphorylation of stat5 [3]: did not influence
